Source: patent US10906873B2, “Substituted cyclic amides as herbicides” (FMC Corporation, priority 2015, dated 2021)

How the values were obtained:
Format in all cases: in vivo
[1] = system: ragweed (common ragweed, Ambrosia elatior); assay: Test A postemergence, ragweed; conditions: 0 to 100 scale
Summary of the method: (§1)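 Visual injury ratings, 0 = no effect to 100 = complete control, made versus untreated controls after about 10 d in greenhouse. Chemicals formulated in solvent mixture containing surfactant were sprayed on loam-sand soil after seeding (preemergence) or onto plants at one- to two-leaf stage, 2-10 cm (postemergence).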

kochia (Kochia scoparia) [2] = assay: Test A postemergence, kochia; conditions: 0 to 100 scale
Summary of the method: as §1

rice (Oryza sativa) = assay: Test B flooded paddy test, rice; conditions: Flood, scale of 0 to 100 where 0 is no effect and 100 is complete control, 13 to 15 d
Summary of the method: (§2)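 Ratings use a 0-100 visual scale, where 100 is complete control, and compare treated plants with controls after 13 to 15 d of greenhouse growth. Compound went straight into paddy water kept 3 cm over the soil surface, applied to seedlings at the 2-leaf stage.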

[3] = system: pigweed (Amaranthus retroflexus); assay: Test A preemergence, pigweed; conditions: 0 to 100 scale
Summary of the method: as §1

[4] = system: galium (catchweed bedstraw, Galium aparine); assay: Test A postemergence, galium; conditions: 0 to 100 scale
Summary of the method: as §1

[5] = system: foxtail, giant (giant foxtail, Setaria faberii); assay: Test A postemergence, foxtail, giant; conditions: 0 to 100 scale
Summary of the method: as §1

[6] = system: barnyardgrass (Echinochloa crus-galli); assay: Test A postemergence, barnyardgrass; conditions: 0 to 100 scale
Summary of the method: as §1

[7] = system: barnyardgrass (Echinochloa crus-galli); assay: Test A preemergence, barnyardgrass; conditions: 0 to 100 scale
Summary of the method: as §1

kochia (Kochia scoparia) [8] = assay: Test A preemergence, kochia; conditions: 0 to 100 scale
Summary of the method: as §1

[9] = system: wheat (Triticum aestivum); assay: Test A postemergence, wheat; conditions: 0 to 100 scale
Summary of the method: as §1

[10] = system: blackgrass (Alopecurus myosuroides); assay: Test A postemergence, blackgrass; conditions: 0 to 100 scale
Summary of the method: as §1

corn (Zea mays) = assay: Test A postemergence, corn; conditions: 0 to 100 scale
Summary of the method: as §1

[11] = system: ragweed (common ragweed, Ambrosia elatior); assay: Test A preemergence, ragweed; conditions: 0 to 100 scale
Summary of the method: as §1

[12] = system: foxtail, giant (giant foxtail, Setaria faberii); assay: Test A preemergence, foxtail, giant; conditions: 0 to 100 scale
Summary of the method: as §1

[13] = system: ducksalad (Heteranthera limosa); assay: Test B flooded paddy test, ducksalad; conditions: Flood, scale of 0 to 100 where 0 is no effect and 100 is complete control, 13 to 15 d
Summary of the method: as §2

[14] = system: ryegrass, It. (Italian ryegrass, Lolium multiflorum); assay: Test A postemergence, ryegrass, It.; conditions: 0 to 100 scale
Summary of the method: as §1

[15] = system: sedge, umbrella (small-flower umbrella sedge, Cyperus difformis); assay: Test B flooded paddy test, sedge, umbrella; conditions: Flood, scale of 0 to 100 where 0 is no effect and 100 is complete control, 13 to 15 d
Summary of the method: as §2

[16] = system: barnyardgrass (Echinochloa crus-galli); assay: Test B flooded paddy test, barnyardgrass; conditions: Flood, scale of 0 to 100 where 0 is no effect and 100 is complete control, 13 to 15 d
Summary of the method: as §2

[17] = system: pigweed (Amaranthus retroflexus); assay: Test A postemergence, pigweed; conditions: 0 to 100 scale
Summary of the method: as §1

[18] = system: ryegrass, It. (Italian ryegrass, Lolium multiflorum); assay: Test A preemergence, ryegrass, It.; conditions: 0 to 100 scale
Summary of the method: as §1

Row | SMILES | Plant response rating, Ragweed ([1]; 125 g ai/ha) | Plant response rating, Ragweed ([1]; 500 g ai/ha) | Plant response rating, Kochia (kochia (Kochia scoparia) [2]; 125 g ai/ha) | Plant response rating, Kochia (kochia (Kochia scoparia) [2]; 500 g ai/ha) | Plant response rating, Pigweed ([3]; 125 g ai/ha) | Plant response rating, Pigweed ([3]; 500 g ai/ha) | Plant response rating, Galium ([4]; 125 g ai/ha) | Plant response rating, Galium ([4]; 500 g ai/ha) | Plant response rating, Foxtail, Giant ([5]; 125 g ai/ha) | Plant response rating, Foxtail, Giant ([5]; 500 g ai/ha) | Plant response rating, Barnyardgrass ([6]; 125 g ai/ha) | Plant response rating, Barnyardgrass ([6]; 500 g ai/ha) | Plant response rating, Barnyardgrass ([7]; 125 g ai/ha) | Plant response rating, Barnyardgrass ([7]; 500 g ai/ha) | Plant response rating, Kochia (kochia (Kochia scoparia) [8]; 125 g ai/ha) | Plant response rating, Kochia (kochia (Kochia scoparia) [8]; 500 g ai/ha) | Plant response rating, Wheat ([9]; 125 g ai/ha) | Plant response rating, Wheat ([9]; 500 g ai/ha) | Plant response rating, Blackgrass ([10]; 125 g ai/ha) | Plant response rating, Blackgrass ([10]; 500 g ai/ha) | other results
1 | Cc1cccc(C#CC2CNC(=O)C2C(=O)Nc2ccccc2F)c1 (stereo not drawn) [Compound 21] | 0 | 0 | 0 | 0 | 0 | 0 | 0 | 0 | 0 | 20 | 0 | 50 | 20 | 80 | 0 | 0 | 0 | 0 | 0 | 0 | Plant response rating, Rice (rice (Oryza sativa); 250 g ai/ha): 0; Plant response rating, Corn (corn (Zea mays); 125 g ai/ha): 0; Plant response rating, Corn (corn (Zea mays); 500 g ai/ha): 0; Plant response rating, Ragweed ([11]; 125 g ai/ha): 0; Plant response rating, Ragweed ([11]; 500 g ai/ha): 0; Plant response rating, Foxtail, Giant ([12]; 125 g ai/ha): 0; Plant response rating, Foxtail, Giant ([12]; 500 g ai/ha): 0; Plant response rating, Ducksalad ([13]; 250 g ai/ha): 40; Plant response rating, Ryegrass, It. ([14]; 125 g ai/ha): 0; Plant response rating, Ryegrass, It. ([14]; 500 g ai/ha): 0; Plant response rating, Sedge, Umbrella ([15]; 250 g ai/ha): 0; Plant response rating, Barnyardgrass ([16]; 250 g ai/ha): 0; Plant response rating, Pigweed ([17]; 125 g ai/ha): 0; Plant response rating, Pigweed ([17]; 500 g ai/ha): 0; Plant response rating, Ryegrass, It. ([18]; 125 g ai/ha): 0; Plant response rating, Ryegrass, It. ([18]; 500 g ai/ha): 20
2 | Cc1cccc(C#CC2CNC(=O)C2C(=O)Nc2ccc(F)c(F)c2F)c1 (stereo not drawn) [Compound 23] | 0 | 0 | 0 | 20 | 0 | 0 | 0 | 20 | 20 | 50 | 20 | 50 | 60 | 80 | 0 | 0 | 0 | 0 | 0 | 0 | Plant response rating, Rice (rice (Oryza sativa); 250 g ai/ha): 0; Plant response rating, Corn (corn (Zea mays); 125 g ai/ha): 0; Plant response rating, Corn (corn (Zea mays); 500 g ai/ha): 0; Plant response rating, Ragweed ([11]; 125 g ai/ha): 0; Plant response rating, Ragweed ([11]; 500 g ai/ha): 0; Plant response rating, Foxtail, Giant ([12]; 125 g ai/ha): 40; Plant response rating, Foxtail, Giant ([12]; 500 g ai/ha): 80; Plant response rating, Ducksalad ([13]; 250 g ai/ha): 0; Plant response rating, Ryegrass, It. ([14]; 125 g ai/ha): 0; Plant response rating, Ryegrass, It. ([14]; 500 g ai/ha): 0; Plant response rating, Sedge, Umbrella ([15]; 250 g ai/ha): 0; Plant response rating, Barnyardgrass ([16]; 250 g ai/ha): 0; Plant response rating, Pigweed ([17]; 125 g ai/ha): 0; Plant response rating, Pigweed ([17]; 500 g ai/ha): 0; Plant response rating, Ryegrass, It. ([18]; 125 g ai/ha): 0; Plant response rating, Ryegrass, It. ([18]; 500 g ai/ha): 0
3 | O=C1NCC(CCc2ccccc2)C1C(=O)Nc1cccc(F)c1F (stereo not drawn) [Compound 35, N-(2,3-difluorophenyl)-2-oxo-4-(2-phenylethyl)-3-pyrrolidinecarboxamide] | 0 | 0 | 0 | 0 | 0 | 0 | 0 | 0 | 0 | 30 | 0 | 30 | 0 | 30 | 0 | 50 | 0 | 0 | 0 | 0 | Plant response rating, Rice (rice (Oryza sativa); 250 g ai/ha): 0; Plant response rating, Corn (corn (Zea mays); 125 g ai/ha): 0; Plant response rating, Corn (corn (Zea mays); 500 g ai/ha): 0; Plant response rating, Ragweed ([11]; 125 g ai/ha): 0; Plant response rating, Ragweed ([11]; 500 g ai/ha): 0; Plant response rating, Foxtail, Giant ([12]; 125 g ai/ha): 0; Plant response rating, Foxtail, Giant ([12]; 500 g ai/ha): 60; Plant response rating, Ducksalad ([13]; 250 g ai/ha): 70; Plant response rating, Ryegrass, It. ([14]; 125 g ai/ha): 0; Plant response rating, Ryegrass, It. ([14]; 500 g ai/ha): 0; Plant response rating, Sedge, Umbrella ([15]; 250 g ai/ha): 0; Plant response rating, Barnyardgrass ([16]; 250 g ai/ha): 0; Plant response rating, Pigweed ([17]; 125 g ai/ha): 0; Plant response rating, Pigweed ([17]; 500 g ai/ha): 0; Plant response rating, Ryegrass, It. ([18]; 125 g ai/ha): 0; Plant response rating, Ryegrass, It. ([18]; 500 g ai/ha): 0
4 | O=C1NCC(Cc2cccc(C(F)(F)F)c2)C1C(=O)Nc1cccc(F)c1F (stereo not drawn) [Compound 11] | 0 | 0 | 0 | 0 | 0 | 0 | 0 | 0 | 0 | 0 | 0 | 0 | 0 | 0 | 0 | 0 | 0 | 0 | 0 | 0 | Plant response rating, Rice (rice (Oryza sativa); 500 g ai/ha): 0; Plant response rating, Corn (corn (Zea mays); 125 g ai/ha): 0; Plant response rating, Corn (corn (Zea mays); 500 g ai/ha): 0; Plant response rating, Ragweed ([11]; 125 g ai/ha): 0; Plant response rating, Ragweed ([11]; 500 g ai/ha): 0; Plant response rating, Foxtail, Giant ([12]; 125 g ai/ha): 0; Plant response rating, Foxtail, Giant ([12]; 500 g ai/ha): 0; Plant response rating, Ducksalad ([13]; 500 g ai/ha): 0; Plant response rating, Ryegrass, It. ([14]; 125 g ai/ha): 0; Plant response rating, Ryegrass, It. ([14]; 500 g ai/ha): 0; Plant response rating, Sedge, Umbrella ([15]; 500 g ai/ha): 0; Plant response rating, Barnyardgrass ([16]; 500 g ai/ha): 0; Plant response rating, Pigweed ([17]; 125 g ai/ha): 0; Plant response rating, Pigweed ([17]; 500 g ai/ha): 0; Plant response rating, Ryegrass, It. ([18]; 125 g ai/ha): 0; Plant response rating, Ryegrass, It. ([18]; 500 g ai/ha): 0
